From patent US20230381196A1, “COMPOSITIONS COMPRISING BISFLUOROALKYL-1,4-BENZODIAZEPINONE COMPOUNDS FOR TREATING ADENOID CYSTIC CARCINOMA” (AYALA PHARMACEUTICALS INC., priority 2020, published 2023)

What was measured:
Assay type in all cases: cell-based, Human
ACC112 cell line = test: Alamar Blue cell viability assay; conditions: 10 nM, 14 days, vs DMSO
Description: (§1) FIG. 10A. Effect of Compound (1) monotherapy on cell viability in ACC cell lines. ACC83 and ACC112 cell lines were treated with 10 nM Compound (1) or DMSO (control) for 14 days, and cell viability relative to day 0 was determined using an Alamar Blue assay on days 7, 11 and 14. **p<0.01; ***p<0.001.
(§2) Methods: The naturally immortalized sublingual gland derived Human ACC cell line ACC83 and the Human HPV-transformed submaxillary gland derived cell line ACC112 were treated with Compound (1) at 10 nM concentration or DMSO (control) for 14 days. ACC83 cells were cultured in RPMI 1640 medium supplemented with 10% FBS, 10,000 u/ml penicillin-streptomycin and 1 ml L-glutamine. ACC112 cell line was additionally supplemented with 20 ng/ml epidermal growth factor, 400 ng/ml hydrocortisone and 5 μg/ml insulin. Cell viability relative to day 0 was determined using an Alamar Blue assay on days 7, 11 and 14. Cell lines were stained with NICD1 (Cell Signaling, 4147S, 1:200), HES1 (Abcam, ab71559, 1:400), HEY1 (Millipore, AB5714, 1:200), and HESS (Novus Biologicals, NBP241305, 1:200) antibodies using iView DAB detection and the Ventana BenchMark XT staining system (Roche). Area and intensity of diaminobenzidine (DAB) signal was quantified using IHC Profiler color deconvolution plugin within ImageJ software.

ACC83 cell line = test: Alamar Blue cell viability assay; conditions: 10 nM, 14 days, vs DMSO
Description: as §1, §2

[1] = system: NOTCH signaling (NICD1, HES1, HESS, HEY1) in ACC112 cells; test: NICD1 and NOTCH downstream targets by IHC and western blot; conditions: 10 nM
Description: (§3) FIG. 10B. Effect of Compound (1) monotherapy on NICD1 in ACC cell lines. NICD1 immunohistochemical staining of ACC83 (left) or ACC112 (right) cells treated with either 10 nM Compound (1) or DMSO (control) for 14 days.
(§4) FIG. 10C. Effect of Compound (1) monotherapy on NOTCH downstream targets in ACC cell lines. Cell lysates were collected at day 14 from Compound (1)- or DMSO (control)-treated ACC83 and ACC112 cells and analyzed by western blot for the expression of NICD1, HES1, HESS and HEY1 proteins, with GAPDH used a loading control.
as §2

[2] = system: NOTCH signaling (NICD1, HES1, HESS, HEY1) in ACC83 cells; test: as above; conditions: 10 nM
Description: as §3, §4, §2

ACC112 cells = test: Wound healing (migration) assay; conditions: 10 nM for 14 days, vs untreated cells
Description: FIG. 11B. Effect of Compound (1) monotherapy on cell migration in ACC112 cell line. ACC112 cells were treated with either 10 nM Compound (1) or DMSO (control) for 14 days. Cells were then plated in wells containing inserts and allowed to attach for 12 h. The inserts were removed, and the gap was photographed at 0 h and at 12 h (left panel).
Methods: A wound healing assay was carried out to assess migration potential of ACC83 and ACC112 cells. Cells were cultured in triplicate in 6-well plates (1×10^6 cells per well) containing culture inserts (Ibidi). On reaching 90% confluence, the inserts were removed, and cells were cultured for 12 hr. Gap area in individual wells was determined using ImageJ. The gap area percentage was calculated as the gap area at 12 hr relative to the gap area at 0 hr. A Boyden chamber assay was carried out to assess the invasion potential of ACC83 and ACC112 cells. Cells were cultured (1×10^4 cells per well) in triplicate into the upper chamber of Matrigel-coated transwell chambers (8-μm pore size, Corning) in serum-free medium, while 10% FBS medium was added to the bottom chamber to stimulate invasion. After 24 h incubation, the cells in the upper chamber were carefully removed with cotton swab, and the cells that had invaded through Matrigel were stained with 1DiffQuick, photographed at 40× magnification and quantified across three random fields.

## CN1C(=O)[C@@H](NC(=O)[C@H](CCC(F)(F)F)[C@H](CCC(F)(F)F)C(N)=O)N=C(c2ccccc2)c2ccccc21 [Compound (1), (2R,3S)—N-((3S)-1-methyl-2-oxo-5-phenyl-2,3-dihydro-1H-1,4-benzodiazepin-3-yl)-2,3-bi s(3,3,3-trifluoropropyl)succinamide]
ACC112 cell line
  cell growth (cell viability relative to day 0): potently inhibited cell growth
ACC83 cell line
  cell growth (cell viability relative to day 0): potently inhibited cell growth
[1]; 14 days, vs DMSO
  NICD1 (Western blotting and IHC): reduction in NICD1
[1]; day 14, western blot
  expression levels of NOTCH downstream targets HES1, HESS and HEY1: substantially downregulated expression levels
[2]; 14 days, vs DMSO
  NICD1 (Western blotting and IHC): reduction in NICD1
[2]; day 14, western blot
  expression levels of NOTCH downstream targets HES1, HESS and HEY1: substantially downregulated expression levels
ACC112 cells
  cell migration (relative gap width at 12 h): significantly inhibited the migration
